Results reported in the supplement of paper PMC10307832.

Columns and labels:
Assay in all cases: relative viability (nuclei count vs DMSO), 5 days (fraction); higher = more cells survive
Bleomycin + Phenformin = compound: CC1=C(N=C(N=C1N)[C@H](CC(=O)N)NC[C@@H](C(=O)N)N)C(=O)N[C@@H]([C@H](C2=CN=CN2)OC3C(C(C(C(O3)CO)O)O)OC4C(C(C(C(O4)CO)O)OC(=O)N)O)C(=O)N[C@H](C)[C@H]([C@H](C)C(=O)N[C@@H]([C@@H](C)O)C(=O)NCCC5=NC(=CS5)C6=NC(=CS6)C(=O)NCCC[S+](C)C)O [Bleomycin] + N=C(N)NC(=N)NCCc1ccccc1 [Phenformin] (partner 250 µM); settings: main component drawn
In short: (§1)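 The day after seeding in 1536-well plates, lung cancer cell lines were treated by pin tool with a single drug, or with a fixed anchor-drug dose together with five library-drug doses (not always all listed) in √10 steps. After 5 days, a combined fix-and-stain solution (final 0.05% Triton X-100, 1% formaldehyde, 1 ug/ml Hoechst) was added. Nuclei counted on 4× images gave relative viability as treated counts over vehicle counts, reported as the median of duplicate plates.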

Etoposide + Vorinostat = compound: COc1cc([C@@H]2c3cc4c(cc3[C@@H](O[C@@H]3O[C@@H]5CO[C@@H](C)O[C@H]5[C@H](O)[C@H]3O)[C@H]3COC(=O)[C@H]23)OCO4)cc(OC)c1O [Etoposide] + O=C(CCCCCCC(=O)Nc1ccccc1)NO [Vorinostat] (partner 1 µM)
In short: as §1

Bleomycin + Vorinostat = compound: CC1=C(N=C(N=C1N)[C@H](CC(=O)N)NC[C@@H](C(=O)N)N)C(=O)N[C@@H]([C@H](C2=CN=CN2)OC3C(C(C(C(O3)CO)O)O)OC4C(C(C(C(O4)CO)O)OC(=O)N)O)C(=O)N[C@H](C)[C@H]([C@H](C)C(=O)N[C@@H]([C@@H](C)O)C(=O)NCCC5=NC(=CS5)C6=NC(=CS6)C(=O)NCCC[S+](C)C)O [Bleomycin] + O=C(CCCCCCC(=O)Nc1ccccc1)NO [Vorinostat] (partner 1 µM); settings: main component drawn
In short: as §1

Etoposide + Lapatinib = compound: COc1cc([C@@H]2c3cc4c(cc3[C@@H](O[C@@H]3O[C@@H]5CO[C@@H](C)O[C@H]5[C@H](O)[C@H]3O)[C@H]3COC(=O)[C@H]23)OCO4)cc(OC)c1O [Etoposide] + CS(=O)(=O)CCNCc1ccc(-c2ccc3ncnc(Nc4ccc(OCc5cccc(F)c5)c(Cl)c4)c3c2)o1 [Lapatinib] (partner 2 µM)
In short: as §1

Row | Cell Line | relative viability (Bleomycin + Phenformin; first compound 0.01 µM) | relative viability (Bleomycin + Phenformin; first compound 0.03162 µM) | relative viability (Bleomycin + Phenformin; first compound 0.1 µM) | relative viability (Bleomycin + Phenformin; first compound 0.3162 µM) | relative viability (Bleomycin + Phenformin; first compound 1 µM) | relative viability (Etoposide + Vorinostat; first compound 0.01 µM) | relative viability (Etoposide + Vorinostat; first compound 0.03162 µM) | relative viability (Etoposide + Vorinostat; first compound 0.1 µM) | relative viability (Etoposide + Vorinostat; first compound 0.3162 µM) | relative viability (Etoposide + Vorinostat; first compound 1 µM) | relative viability (Bleomycin + Vorinostat; first compound 0.01 µM) | relative viability (Bleomycin + Vorinostat; first compound 0.03162 µM) | relative viability (Bleomycin + Vorinostat; first compound 0.1 µM) | relative viability (Bleomycin + Vorinostat; first compound 0.3162 µM) | relative viability (Bleomycin + Vorinostat; first compound 1 µM) | relative viability (Etoposide + Lapatinib; first compound 0.01 µM) | relative viability (Etoposide + Lapatinib; first compound 0.03162 µM) | relative viability (Etoposide + Lapatinib; first compound 0.1 µM) | relative viability (Etoposide + Lapatinib; first compound 0.3162 µM) | relative viability (Etoposide + Lapatinib; first compound 1 µM)
1 | LC-2-ad | 0.493 | 0.536 | 0.385 | 0.283 | 0.238 | 0.687 | 0.736 | 0.69 | 0.459 | 0.245 | 0.62 | 0.609 | 0.466 | 0.236 | 0.2 | 0.867 | 0.961 | 0.906 | 0.649 | 0.154
2 | NCI-H1915 | 0.301 | 0.301 | 0.254 | 0.15 | 0.14 | 0.511 | 0.616 | 0.426 | 0.477 | 0.418 | 0.377 | 0.383 | 0.291 | 0.162 | 0.116 | 0.907 | 1.03 | 0.913 | 0.749 | 0.524
3 | NCI-H1793 | 0.389 | 0.417 | 0.349 | 0.211 | 0.131 |  | 0.934 | 0.353 | 0.427 | 0.151 | 0.714 | 0.647 | 0.525 | 0.215 | 0.141 | 0.543 | 0.682 |  | 0.687 | 0.288
4 | NCI-H2023 | 0.34 | 0.326 | 0.312 | 0.157 | 0.101 | 0.442 | 0.626 | 0.335 | 0.176 | 0.0989 | 0.409 | 0.385 | 0.338 | 0.0999 | 0.114 | 0.886 | 0.895 | 0.293 | 0.372 | 0.0709
5 | COR-L 105 | 0.49 | 0.394 | 0.399 | 0.315 | 0.35 | 1.09 | 0.856 | 0.731 | 0.727 | 0.734 | 0.716 | 0.719 | 0.617 | 0.435 | 0.486 | 0.271 | 0.393 | 0.26 | 0.343 | 0.356
6 | SK-LU-1 | 0.46 | 0.696 | 0.5 | 0.31 | 0.209 | 0.696 | 0.671 | 0.638 | 0.273 | 0.249 | 0.734 | 0.746 | 0.521 | 0.454 | 0.348 | 0.752 | 0.949 | 0.375 | 0.261 | 0.202
7 | LXF-289 | 0.471 | 0.477 | 0.446 | 0.174 | 0.0704 | 0.763 | 0.744 | 0.953 | 0.547 | 0.136 | 0.723 | 0.718 | 0.614 | 0.331 | 0.167 | 0.88 | 0.972 | 0.953 | 0.601 | 0.222
